Measured values: patent publication US20090143418A1, “Compositions and Methods for Preventing and Treating Hair Growth Cycle-Related Conditions” (THE REGENTS OF THE UNIVERSITY OF MICHIGAN, priority 2007, published 2009)
“And” between values parts separate entries of the source, which are not always exact repeats. Equal entries are not always repeated.

What was measured:
hirsutism = hirsutism patients; cited from earlier work
DCT-LacZ mice [1] = test: DCT-LacZ (X-gal) staining of skin, hair follicles containing melanocyte progenitors; type: in vivo, mouse; conditions: for percentage of hair follicles containing DCT-LacZ+ cells, Average: 11.2 grays irradiation, rapamycin 4 mg/kg/day i.p.; for percentage of hair follicles containing DCT-LacZ+ cells, individual mouse: individual animals (Mouse 1-4), 4 mg/kg/day i.p., 4 mg/kg/day
Protocol: Mice: DCT-LacZ mice were backcrossed for 3 generations on a C57BL background.
Irradiation and Bone Marrow Transplant: Adult recipient mice were irradiated using a gamma cell irradiator. Mice received two doses of 560 rads each delivered 3 hours apart (FIGS. 1-4, FIG. 7, Table 1). Mice received 1,000,000 whole bone marrow cells isolated from a C57BL donor (FIGS. 1-4, FIG. 7, Table 1). Bone marrow cells were suspended in HBSS free with 2% Bovine Serum and injected via the retro orbital venous sinus. Where indicated, mice were sublethally irradiated with 650 rads and not subjected to bone marrow transplant (FIG. 6).
(§1) Rapamycin: Rapamycin (LC Laboratories) was administered by intraperitoneal injection. Rapamycin was reconstituted in ethanol (10 mg/ml or 1 mg/ml) and diluted into a solution of 5% Tween-80 (Sigma) and 5% PEG-400 (Hampton Research). The final volume injected was […]. Dosing and administration regimes were as indicated in Example II.
(§2) DCT-LacZ Staining A 2×2 cm patch of skin was harvested with dissecting scissors from euthanized DCT-LacZ mice. The skin patch was washed in phosphate buffer (0.5M Na2HPO4, 0.5M NaH2PO4, 2 mM MgC12, 0.02% NP-40, 0.01% sodium deoxycolate), and then fixed on ice in 0.2% glutaraldehyde in phosphate buffer for 30 minutes. While being fixed, the skin samples were microwaved in fixation solution on ice for 20 seconds. After fixation, the samples were washed and the adipose layer was removed by dissection. After another washing, the skin samples were stained in 1 mg/ml X-gal in phosphate buffer for 2.5 hours. After staining, samples were washed and roughly 1 mm wide sections were made manually using a razor blade. Sections were mounted in 70% glycerol.
To better understand the effects of rapamycin on melanocyte progenitors, transplantation experiments in mice bearing a DCT-LacZ transgene, which is expressed by melanocyte progenitors in hair follicles, were conducted (see, e.g., Mackenzie, M. A., et al., Dev Biol 192, 99-107 (1997); Nishimura, E. K., et al., Nature 416, 854-60 (2002); each herein incorporated by reference in their entireties). This transgene expresses the bacterial LacZ gene under the control of the melanocyte specific promoter for the gene dopachrome tautomerase. These mice were used as recipients in similar transplants where 1 million whole bone marrow cells were irradiated and transplanted. The mice were treated with 0.4 mg/kg of rapamycin every other day for the first two weeks and then with 4 mg/kg/day after that. These mice were sacrificed at regular intervals, and their skin harvested and stained with X-gal.
Animals were sacrificed at each time point and stained with X-gal. The percentage of hair follicles containing DCT-LacZ+ cells was quantified.

DCT-LacZ mice [2] = test: Hair cycle stage (anagen) in skin sections of irradiated, transplanted DCT-LacZ mice; type: in vivo, mouse; conditions: 2/18 rapamycin treated animals versus 56% (10/18) vehicle; P=0.0001
Protocol: as §2
To better understand the effects of rapamycin on melanocyte progenitors, transplantation experiments in mice bearing a DCT-LacZ transgene, which is expressed by melanocyte progenitors in hair follicles, were conducted (see, e.g., Mackenzie, M. A., et al., Dev Biol 192, 99-107 (1997); Nishimura, E. K., et al., Nature 416, 854-60 (2002); each herein incorporated by reference in their entireties). This transgene expresses the bacterial LacZ gene under the control of the melanocyte specific promoter for the gene dopachrome tautomerase. […]

[3] = tested on: wild-type nonirradiated mice; test: Depilation-induced hair cycle, skin pigmentation onset; type: in vivo, mouse; conditions: 4 mg/kg starting the day after depilation
Protocol: as §1
Depilation: Mice were anesthetized by intraperitoneal injection of 80 mg/kg of ketamine and 4 mg/kg of […] dissolved in HBSS. Final injection volume was 200 μl. The dorsal hair of the mice was then shaved with conventional clippers, and a commercial depilatory cream (Veet®) was applied liberally to an area of approximately 1.5×1.5 cm. After 5 minutes, the cream was washed off the mouse using warm water, and the mouse was gently dried using paper towels.
In analyzing the frequency of hair follicles that contained X-gal+ melanocytes, it became apparent that the hair follicles of rapamycin treated animals were less frequently in mature stages of the hair cycle (see FIG. 4). […] As such, a region of the lower back of wild-type nonirradiated mice was shaved and depilated. Depilation induced a new hair growth cycle, thereby permitting to test if in this context rapamycin could prevent the onset of or lengthen the duration of the hair cycle. […]

Row | Structure (SMILES) | side effects (hirsutism) | percentage of hair follicles containing DCT-LacZ+ cells, Average (DCT-LacZ mice [1]; Week 8) [%] | percentage of hair follicles containing DCT-LacZ+ cells, individual mouse (DCT-LacZ mice [1]; Week 8) | percentage of hair follicles containing DCT-LacZ+ cells, Average (DCT-LacZ mice [1]; Week 10) [%] | percentage of hair follicles containing DCT-LacZ+ cells, individual mouse (DCT-LacZ mice [1]; Week 10) | percentage of hair follicles containing DCT-LacZ+ cells, Average (DCT-LacZ mice [1]; Week 12) [%] | percentage of hair follicles containing DCT-LacZ+ cells, individual mouse (DCT-LacZ mice [1]; Week 12) | percentage of hair follicles containing DCT-LacZ+ cells, Average (DCT-LacZ mice [1]; Week 14) [%] | percentage of hair follicles containing DCT-LacZ+ cells, individual mouse (DCT-LacZ mice [1]; Week 14) | animals with hairs in anagen (DCT-LacZ mice [2]) [%] | days until pigmentation was visible in skin ([3]; n=5, vehicle 16.7 days, p=0.04) [days] | delay of change in skin color (progression through anagen) versus vehicle ([3]; on average) [days]
1 | NCCCC(N)(C(=O)O)C(F)F (stereo not drawn) [Eflornithine] | minor skin irritation, folliculitis, stinging, burning, tingling, acne, and/or rash | – | – | – | – | – | – | – | – | – | – | –
2 | CO[C@H]1C[C@@H]2CC[C@@H](C)[C@@](O)(O2)C(=O)C(=O)N2CCCC[C@H]2C(=O)O[C@H]([C@H](C)C[C@@H]2CC[C@@H](O)[C@H](OC)C2)CC(=O)[C@H](C)/C=C(\C)[C@@H](O)[C@@H](OC)C(=O)[C@H](C)C[C@H](C)/C=C/C=C/C=C/1C [Rapamycin] | – | 61.0 | 77.0% and 45.0% | 34.1 | 19.3% and 22.0% and 42.0% and 53.0% | 48.3 | 54.0% and 39.0% and 52.0% | 40.5 | 53.0% and 42.0% and 17.0% and 50.0% | 11 | 25.2 | 8
